Measurements taken from patent US11286268B1, “EIF4E-inhibiting compounds and methods” (EFFECTOR THERAPEUTICS, INC., priority 2019, dated 2022).
Like-named read-outs stand apart in the source and are kept apart here.

Target: recombinant eIF4E (Homo sapiens (Human), UniProt P06730)
Experiment: Fluorescence polarization competition assay for eIF4E binding potency
Description: Compounds were screened for eIF4E binding potency using a fluorescence polarization competition assay. All binding reactions were performed in fluorescence polarization buffer (FPB) containing 20 mM Tris pH 7.5, 100 mM NaCl, 1 mM DTT, and 0.02% Tween-20. Final binding reactions contained 75 nM recombinant eIF4E (Beryllium, custom order), 20 nM EDA-m^7GDP-ATTO-550 (Jena Bioscience, NU-827-550) and varying concentrations of the inhibitory compound of interest. Final DMSO concentration in each reaction was 1%.
eIF4E protein was pre-incubated with EDA-m^7GDP-ATTO-550 in FPB at 2× concentrations for 5 minutes prior to the addition of compounds. Compounds (100×) were prepared using 3-fold serial dilutions in 100% DMSO, and subsequently diluted 1:50 in FPB to produce 2× stocks. 50 μl of 2× eIF4E/EDA-m^7GDP-ATTO-550 were transferred to the wells of a 96-well half-area black flat bottom polystyrene plate. 50 μl of 2× test compound were added, and binding reactions were allowed to equilibrate for 30 minutes at room temperature while protected from light. The fluorescent polarization signal was detected using a Victor 2 multi-label counter (Perkin Elmer) and the concentration necessary to achieve inhibition of eIF4E/EDA-m^7GDP-ATTO-550 binding by 50% (IC50) was calculated using data from an 8-point compound dilution series.
In Table 4A, IC50 values of less than 0.05 μM are labelled as “+++”, from 1 to 0.05 μM are labelled as “++”, and greater than 1 μM are labelled as “+”. ND=not determined.

[1] = fluorescence polarization competition, 75 nM recombinant eIF4E, 20 nM EDA-m7GDP-ATTO-550, IC50 class, read-out: elF4E FP
[2] = inhibition of eIF4E/EDA-m7GDP-ATTO-550 binding by 50%, Table 4B calculated values, read-out: IC50
[3] = inhibition of eIF4E/EDA-m7GDP-ATTO-550 binding, calculated IC50 values, Table 4B, read-out: IC50

Sequence of recombinant eIF4E (P06730 whole entry): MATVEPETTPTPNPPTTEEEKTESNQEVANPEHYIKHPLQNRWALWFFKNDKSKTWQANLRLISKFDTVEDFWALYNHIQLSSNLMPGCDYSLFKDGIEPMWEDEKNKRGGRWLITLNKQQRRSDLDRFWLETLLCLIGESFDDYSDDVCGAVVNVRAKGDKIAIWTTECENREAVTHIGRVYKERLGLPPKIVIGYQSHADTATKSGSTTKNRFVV

SMILES	IC50 [1]	IC50 [2]	IC50 [3]
Cc1nc2cc(C(F)(F)F)cc(C#N)c2c(=O)n1CCOc1ccc(Cl)cc1-c1snc2c(C(=O)O)csc12 [compound 265]	50 to 1000 nM	77.1 nM	
Cc1cc(-c2cc(Cl)ccc2OCCn2c(C)nc3cc(CN(C)C)c(OC(C)C)c(C#N)c3c2=O)c2scc(C(=O)O)c2n1 [compound 370]	< 50 nM	12.1 nM	
Cc1cc(-c2cc(Cl)ccc2OCCn2c(C)nc3cnc(C(C)F)c(C#N)c3c2=O)c2scc(C(=O)O)c2n1 (stereo not shown) [compound 1065]	< 50 nM	18.6 nM	
Cc1nc2cnc(N3CCN(CC(C(F)(F)F)C(F)(F)F)CC3)c(C#N)c2c(=O)n1CCOc1ccc(Cl)cc1-c1ccnc2c(C(=O)O)csc12 [compound 1359]			39.7 nM
Cc1nc2cnc(N(C)C3CCN(CC(C)(F)F)CC3)c(C#N)c2c(=O)n1CC#Cc1ccc(Cl)cc1-c1ccnc2c(C(=O)NS(=O)(=O)c3ccc(C(F)(F)F)nc3)csc12 [compound 1674]			6.5 nM
Cc1cc(-c2cc(Cl)ccc2OCCn2c(C)nc3c(C)nc(-c4cccc(C(F)(F)F)c4)c(C#N)c3c2=O)c2scc(C(=O)O)c2n1 [compound 925]	< 50 nM	43.1 nM	
Cc1ccc(F)c(-c2c(C(F)(F)F)cc3nc(C)n(CCOc4ccc(Cl)cc4-c4cc(C)nc5c(C(=O)O)csc45)c(=O)c3c2C#N)n1 [compound 434]	< 50 nM	7.76 nM	
Cc1cc(-c2cc(Cl)ccc2OCCn2c(C)nc3cc(C(F)(F)F)c(C4=CCN(C)CC4)c(C#N)c3c2=O)c2sc(C)c(C(=O)O)c2n1 [compound 1417]			24.9 nM
Cc1cc(-c2cc(Cl)ccc2OCCn2c(C)nc3cc(C(F)(F)F)c(Cc4ncccc4F)c(C#N)c3c2=O)c2scc(C(=O)O)c2n1 [compound 473]	< 50 nM	14.5 nM	
CC(=O)c1nc2c(=O)n(CCOc3ccc(Cl)cc3-c3cc(C)nc4c(C(=O)O)csc34)c(C)nc2cc1C(F)(F)F [compound 780]	< 50 nM	9.6 nM	
Cc1nc2cnc(N3CCN(CC(F)(F)F)CC3)c(C#N)c2c(=O)n1CC#Cc1ccc(Cl)cc1-c1ccnc2c(C(=O)O)csc12 [compound 860]	< 50 nM	10.3 nM	
Cc1nc2cc(C(F)(F)F)cc(C#N)c2c(=O)n1CCOc1ccc(Cl)cc1-c1ccnc2c(CC(=O)O)csc12 [compound 202]	< 50 nM	47.4 nM	
CCc1cc(-c2cc(Cl)ccc2OCCn2c(=O)[nH]c3cc(Cl)cc(C#N)c3c2=O)c2scc(C(=O)O)c2n1 [compound 1078]	50 to 1000 nM	347 nM	
Cc1cc(-c2cc(Cl)ccc2OCCn2c(C)nc3cc(C(F)(F)F)cc(C#N)c3c2=O)c2scc(C(=O)NCC(=O)O)c2n1 [compound 398]	50 to 1000 nM	149 nM	
CCN(c1ncc2nc(C)n(CC#Cc3ccc(Cl)cc3-c3ccnc4c(C(=O)NS(=O)(=O)CC(F)F)csc34)c(=O)c2c1C#N)C1CCN(C2COC2)CC1 [compound 1745]			11 nM
Cc1cc(-c2cc(Cl)ccc2C#CCn2c(C)nc3cc(C(F)(F)F)c(-c4ccncn4)c(C#N)c3c2=O)c2scc(C(=O)O)c2n1 [compound 908]	< 50 nM	3.26 nM	
Cc1cc(-c2cc(Cl)ccc2OCCn2c(C)nc3ccc(N(C)C)nc3c2=O)c2scc(C(=O)O)c2n1 [compound 679]	50 to 1000 nM	160 nM	
Cc1nc2c(ccc3cnncc32)c(=O)n1CCOc1ccc(Cl)cc1-c1ccnc2c(C(=O)O)csc12 [compound 659]	< 50 nM	26.4 nM	
Cc1cc(-c2cc(Cl)ccc2OCCn2c(C)nc3cnc(O)c(C#N)c3c2=O)c2scc(C(=O)O)c2n1 [compound 1004]	< 50 nM	22.5 nM	
Cc1nc2cnc(N(C)[C@H]3CC[C@@H](N4CC(F)(F)C4)CC3)c(C#N)c2c(=O)n1CC#Cc1ccc(Cl)cc1-c1ccnc2c(C(=O)O)csc12 [compound 1100]	< 50 nM	33.5 nM	
Cc1cc(-c2cc(Cl)ccc2OCCn2c(C)nc3cc(C(F)(F)F)c(N4CCN(C)CC4)c(C#N)c3c2=O)c2scc(C(O)C(F)(F)F)c2n1 (stereo not shown) [compound 1080]	50 to 1000 nM	105 nM	
Cc1c(CN(C)C)c(C(F)(F)F)cc2nc(C)n(CCOc3ccc(Cl)cc3-c3ccnc4c(C(=O)O)csc34)c(=O)c12 [compound 620]	< 50 nM	36.9 nM	
N#Cc1cccc2nc(C(F)F)n(CCOc3ccc(Cl)cc3-c3cccc(C(=O)O)c3)c(=O)c12 [compound 1986]			78.5 nM
Cc1nc2cnc(N(C)C3CCN(CC(F)(F)F)CC3)c(C#N)c2c(=O)n1CC#Cc1ccc(Cl)cc1-c1ccnc2c(C(=O)O)csc12 [compound 1140]	< 50 nM	6.14 nM	

SMILES	IC50 [1]	IC50 [2]	IC50 [3]
Cc1nc2cc(Cl)c(C#N)c(C#N)c2c(=O)n1CCOc1ccc(Cl)cc1-c1ccnc2c(C(=O)O)csc12 [compound 1949]			21.6 nM
Cc1cc(-c2c(C(F)(F)F)cc3nc(C)n(CCOc4ccc(Cl)cc4-c4cc(C)nc5c(C(=O)O)csc45)c(=O)c3c2C#N)cnn1 [compound 442]	< 50 nM	17.7 nM	
Cc1nc2cc(C(F)(F)F)c(N3CCN(C4CC4)CC3)c(C#N)c2c(=O)n1CCOc1ccc(Cl)cc1-c1ccnc2c(P(=O)(O)O)csc12 [compound 1615]			14.7 nM
COc1cc(-c2cc(Cl)ccc2OCCn2c(C)nc3cc(C(F)(F)F)c(N4CCN(C)CC4)c(C#N)c3c2=O)cc(C(=O)O)n1 [compound 1224]	50 to 1000 nM		
CNC(=O)Cc1cc2c(=O)n(CCOc3ccc(Cl)cc3-c3cccc(C(=O)O)c3)cnc2cn1 [compound 137]	50 to 1000 nM	904 nM	
Cc1nc2ccc(S(=O)(=O)N3CCC(F)(F)CC3)c(C#N)c2c(=O)n1CCOc1ccc(Cl)cc1-c1ccnc2c(C(=O)O)csc12 [compound 282]	< 50 nM	17.1 nM	
Cc1c(C(F)(F)F)cc2nc(C)n(CCOc3ccc(Cl)cc3-c3ccnc4c(C(=O)O)csc34)c(=O)c2c1C#N [compound 415]	< 50 nM	14.3 nM	
COc1cncc(-c2c(C(F)(F)F)cc3nc(C)n(CCOc4ccc(Cl)cc4-c4cc(C)nc5c(C(=O)O)csc45)c(=O)c3c2C#N)c1 [Compound 1060]	50 to 1000 nM	50.9 nM	
Cc1nc2cc(C(F)(F)F)cc(C#N)c2c(=O)n1CCOc1ccc(Cl)cc1N1CCC(CC(=O)O)CC1 [compound 328]	> 1000 nM	1320 nM	
Cc1cc(-c2cc(Cl)ccc2OCCn2c(C)nc3cc(C(F)(F)F)c(C4CCCN4C)c(C#N)c3c2=O)c2scc(C(=O)O)c2n1 (stereo not shown) [compound 708]	50 to 1000 nM	87.8 nM	
Cc1nc2cnc(N(C)C3CCN(CC4(F)CC4)CC3)c(C#N)c2c(=O)n1CC#Cc1ccc(Cl)cc1-c1ccnc2c(C(=O)O)csc12 [compound 1169]	< 50 nM	15.3 nM	
CCOc1c(C(F)(F)F)cc2nc(C)n(CCOc3ccc(Cl)cc3-c3cc(C)nc4c(C(=O)O)csc34)c(=O)c2c1C#N [compound 1073]	50 to 1000 nM	58.1 nM	
Cc1nc2cc(C(F)(F)F)c(OC(F)F)c(C#N)c2c(=O)n1CCOc1ccc(Cl)cc1-c1ccnc2c(C(=O)O)csc12 [compound 549]	< 50 nM	19.3 nM	
N#Cc1cc2c(=O)n(Cc3cc4cc(Cl)cc(-c5cccc(C(=O)O)c5)c4o3)cnc2cn1 [compound 25]	> 1000 nM	12600 nM	
CCc1ncc(C#N)c2c(=O)n(CCOc3ccc(Cl)cc3-c3cc(C)nc4c(C(=O)O)csc34)c(C)nc12 [compound 338]	< 50 nM	45.3 nM	
CCN(c1ncc2nc(C)n(CC#Cc3ccc(Cl)cc3-c3ccnc4c(C(=O)NS(=O)(=O)c5cccnc5)csc34)c(=O)c2c1C#N)C1CCN(CC(F)(F)C(F)F)CC1 [compound 1709]			28.4 nM
Cc1cccc(-c2nc(C)c3nc(C)n(CCOc4ccc(Cl)cc4-c4cc(C)nc5c(C(=O)O)csc45)c(=O)c3c2C#N)c1 [compound 478]	< 50 nM		
Cc1cc(-c2cc(Cl)ccc2OCCn2c(C)nc3cc(C(F)F)c(-c4cncc(F)c4)c(C#N)c3c2=O)c2scc(C(=O)O)c2n1 [compound 1387]			22.8 nM
Cc1cc(-c2cc(Cl)ccc2OCCn2c(C)nc3cnc(N4CCC(O)C4)c(C#N)c3c2=O)c2scc(C(=O)O)c2n1 (stereo not shown) [compound 1056]	< 50 nM	16.1 nM	
Cc1cc(-c2cc(Cl)ccc2OCCn2c(C)nc3cc(C(F)(F)F)c(-c4cnn(C)c4C)c(C#N)c3c2=O)c2scc(C(=O)O)c2n1 [compound 1032]	< 50 nM	6.2 nM	
N#Cc1cncc2ncn(CCOc3ccc(Cl)cc3-c3cccc(C(=O)O)c3)c(=O)c12 [compound 34]	50 to 1000 nM	88.5 nM	
Cc1nc2cc(Cl)c(F)c(C#N)c2c(=O)n1CCOc1ccc(Cl)cc1-c1ccnc2c(C(=O)O)csc12 [compound 242]	< 50 nM	20.3 nM	
Cc1nc2cnc(N3CCN(C4CC(F)(F)C4)CC3)c(C#N)c2c(=O)n1CCOc1ccc(Cl)cc1-c1ccnc2c(C(=O)O)csc12 [compound 1307]			54.2 nM
